Where a name gives a salt, the structure may show the parent alone. Read-outs that look alike come from different tables or passages of the source.
Experiments:
[1] = system: A549; assay: Cell-based assay, anti-proliferative activity (Cell Counting Kit-8, 72 hours); settings: Homo sapiens, read-out: IC50 (μM) A549
Method in brief: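 Seed cells in 96-well format; add inhibitors; measure growth by CCK-8 at end of exposure; derive IC50.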

[2] = target: SUV39H2 (Homo sapiens (Human), UniProt Q9H5I1); settings: read-out: IC50 (μM) Suv 39H2 assay
[3] = system: HCT-116; assay: Cell-based assay, anti-proliferative activity (Cell Counting Kit-8, 72 hours); settings: Homo sapiens, read-out: IC50 (μM) HCT-116
Method in brief: (§1)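 Seed cells in 96-well plates; add serially diluted inhibitor (1.5625 to 100 micro-M plus vehicle); incubate 72 hours; quantify viable growth by CCK-8 and calculate IC50.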

[4] = system: HFL1; assay: as above; settings: Homo sapiens, read-out: IC50 (μM) HFL1
Method in brief: as §1

[5] = system: CCD-18Co; assay: as above; settings: Homo sapiens, read-out: IC50 (μM) CCD-18Co
Method in brief: as §1

[6] = system: PC14; assay: as above; settings: Homo sapiens, read-out: IC50 (μM) PC14
Method in brief: as §1

[7] = A549 cells, Cell Counting Kit-8, 72 hours
[8] = HCT-116 cells, Cell Counting Kit-8, 72 hours
[9] = HFL1 cells, Cell Counting Kit-8, 72 hours
[10] = CCD-18Co cells, Cell Counting Kit-8, 72 hours
[11] = PC-14, PC14 cells, Cell Counting Kit-8, 72 hours
[12] = A549 cells, 72 hours, Cell Counting Kit-8
[13] = HCT-116 cells, 72 hours, Cell Counting Kit-8
[14] = HFL1 cells, 72 hours, Cell Counting Kit-8
[15] = CCD-18Co cells, 72 hours, Cell Counting Kit-8
[16] = PC-14, PC14 cells, 72 hours, Cell Counting Kit-8

SUV39H2, sequence (Q9H5I1 whole entry): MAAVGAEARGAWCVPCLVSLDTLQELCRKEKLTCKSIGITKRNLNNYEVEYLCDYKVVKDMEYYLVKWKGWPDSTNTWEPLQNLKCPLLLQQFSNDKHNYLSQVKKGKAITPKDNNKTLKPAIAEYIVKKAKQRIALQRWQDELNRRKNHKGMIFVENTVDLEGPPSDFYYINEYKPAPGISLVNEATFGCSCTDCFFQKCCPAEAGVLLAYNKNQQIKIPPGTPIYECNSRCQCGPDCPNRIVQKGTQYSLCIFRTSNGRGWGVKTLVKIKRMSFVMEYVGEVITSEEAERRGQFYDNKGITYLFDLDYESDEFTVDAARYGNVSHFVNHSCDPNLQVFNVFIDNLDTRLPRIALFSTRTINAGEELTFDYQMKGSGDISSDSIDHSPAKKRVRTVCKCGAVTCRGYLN

Row | SMILES | IC50 ([1]; A549, 72 h) | IC50 [2] | IC50 ([3]; HCT-116, 72 h) | IC50 ([4]; HFL1, 72 h) | IC50 ([5]; CCD-18Co, 72 h) | IC50 ([6]; PC-14, 72 h) | IC50 [1, 7] | IC50 ([2]; enzyme assay) | IC50 [3, 8] | IC50 [4, 9] | IC50 [5, 10] | IC50 [6, 11] | IC50 [1, 12] | IC50 [3, 13] | IC50 [4, 14] | IC50 [5, 15] | IC50 [6, 16]
1 | COc1cc(C)c(Cl)cc1-c1cn2ccc(N3CCNCC3)cc2n1 [Example 228, 2-(5-chloro-2-methoxy-4-methylphenyl)-7-(piperazin-1-yl)imidazo[1,2-a]pyridine hydrochloride] | 2.8 µM | 0.033 µM | 2 µM | 1.6 µM | 2.6 µM | 2.3 µM | – | – | – | – | – | – | – | – | – | – | –
2 | COc1cc(OC)c(-c2cn3ccc(N4CCC(NC(=O)C(C)(C)C)CC4)cc3n2)cc1Cl [Example 123, N-(1-(2-(5-chloro-2,4-dimethoxyphenyl)imidazo[1,2-a]pyridin-7-yl)piperidin-4-yl)pivalamide] | – | – | – | – | – | – | 3.3 µM | 0.00771 µM | 2.6 µM | 2 µM | 3.4 µM | 2.2 µM | – | – | – | – | –
3 | COc1ccc(CN[C@H]2CCN(c3ccn4cc(-c5cc(Cl)c(OC)cc5OC)nc4c3)C2)cc1 [Example 306, (S)-1-(2-(5-chloro-2,4-dimethoxyphenyl)imidazo[1,2-a]pyridin-7-yl)-N-(4-methoxybenzyl)pyrrolidin-3-amine] | – | – | – | – | – | – | – | 0.00881 µM | – | – | – | – | 1.3 µM | 0.69 µM | 0.72 µM | 1.4 µM | 1.4 µM
4 | COc1cc(OC)c(-c2cn3ccc(-c4ccc(C(=O)NCC5CCCNC5)cc4)cc3n2)cc1Cl (stereo not drawn) [Example 251, 4-(2-(5-chloro-2,4-dimethoxyphenyl)imidazo[1,2-a]pyridin-7-yl)-N-(piperidin-3-ylmethyl)benzamide] | – | – | – | – | – | – | – | 0.0308 µM | – | – | – | – | 9.7 µM | 5.8 µM | 8.3 µM | 10 µM | 5.4 µM
5 | COc1cc(OC)c(-c2cn3ccc(NC(=O)CN)cc3n2)cc1Cl [Example 166, 2-amino-N-(2-(5-chloro-2,4-dimethoxyphenyl)imidazo[1,2-a]pyridin-7-yl)-acetamide] | 7.1 µM | – | 6.1 µM | 22 µM | 7.9 µM | 6.5 µM | – | 0.031 µM | – | – | – | – | – | – | – | – | –
6 | COc1cc(OC)c(-c2cn3ccc(N4CCN(CCC(N)=O)CC4)cc3n2)cc1Cl [Example 137, 3-(4-(2-(5-chloro-2,4-dimethoxyphenyl)imidazo[1,2-a]pyridin-7-yl)piperazin-1-yl)propanamide] | – | – | – | – | – | – | 24 µM | 0.00454 µM | 14 µM | 13 µM | 14 µM | 12 µM | – | – | – | – | –
7 | COc1cc(OC)c(-c2cn3ccc(N4CCN(S(C)(=O)=O)CC4)nc3n2)cc1Cl [Example 177, 2-(5-chloro-2,4-dimethoxyphenyl)-7-(4-(methylsulfonyl)piperazin-1-yl)-imidazo[1,2-a]pyrimidine] | – | – | – | – | – | – | 3.8 µM | 0.0408 µM | 6 µM | 8 µM | 11 µM | 2.5 µM | – | – | – | – | –
8 | COc1cc(OC)c(-c2cn3ccc(N4CCNC(CO)C4)cc3n2)cc1Cl (stereo not drawn) [Example 235, (4-(2-(5-chloro-2,4-dimethoxyphenyl)imidazo[1,2-a]pyridin-7-yl)-piperazin-2-yl)methanol] | – | – | – | – | – | – | – | 0.0115 µM | – | – | – | – | 5.3 µM | 6.6 µM | 4.3 µM | 6.7 µM | 5.6 µM
9 | CC[C@H](C)[C@H](NC)C(=O)Nc1ccn2cc(-c3cc(Cl)c(OC)cc3OC)nc2c1 [Example 266, (2S,3S)—N-(2-(5-chloro-2,4-dimethoxyphenyl)imidazo[1,2-a]pyridin-7-yl)-3-methyl-2-(methylamino)pentanamide] | – | – | – | – | – | – | – | 0.0454 µM | – | – | – | – | 1.5 µM | 2.8 µM | 1.2 µM | 1.3 µM | 1.5 µM
10 | COc1cc(OC)c(-c2cn3ccc(N4CCC(NS(=O)(=O)N(C)C)CC4)cc3n2)cc1Cl [Example 181, N-{1-[2-(5-Chloro-2,4-dimethoxyphenyl)imidazo[1,2-a]pyridin-7-yl]piperidin-4-yl}N,N-dimethylsulfonamide] | – | – | – | – | – | – | 0.76 µM | 0.0139 µM | 1.6 µM | 0.35 µM | 0.38 µM | 1.5 µM | – | – | – | – | –
11 | CNc1ccn2cc(-c3cc(Br)c(OC)cc3OC)nc2c1 [Example 11, 2-(5-bromo-2,4-dimethoxyphenyl)-N-methylimidazo[1,2-a]pyridin-7-amine hydrobromide] | 1.4 µM | – | 1.1 µM | 1.7 µM | 2 µM | 0.88 µM | – | 0.0094 µM | – | – | – | – | – | – | – | – | –

Source: patent US10508109B2 (priority 2015, dated 2019)
